Values quoted from earlier work as cited in US8632986B2, “Methods and kits for detection of toxemia” (priority 2008, dated 2014).

Molecular target: albumin (Homo sapiens, UniProt P02768)
Conditions: general statement

albumin, sequence (P02768 25-609, species assumed): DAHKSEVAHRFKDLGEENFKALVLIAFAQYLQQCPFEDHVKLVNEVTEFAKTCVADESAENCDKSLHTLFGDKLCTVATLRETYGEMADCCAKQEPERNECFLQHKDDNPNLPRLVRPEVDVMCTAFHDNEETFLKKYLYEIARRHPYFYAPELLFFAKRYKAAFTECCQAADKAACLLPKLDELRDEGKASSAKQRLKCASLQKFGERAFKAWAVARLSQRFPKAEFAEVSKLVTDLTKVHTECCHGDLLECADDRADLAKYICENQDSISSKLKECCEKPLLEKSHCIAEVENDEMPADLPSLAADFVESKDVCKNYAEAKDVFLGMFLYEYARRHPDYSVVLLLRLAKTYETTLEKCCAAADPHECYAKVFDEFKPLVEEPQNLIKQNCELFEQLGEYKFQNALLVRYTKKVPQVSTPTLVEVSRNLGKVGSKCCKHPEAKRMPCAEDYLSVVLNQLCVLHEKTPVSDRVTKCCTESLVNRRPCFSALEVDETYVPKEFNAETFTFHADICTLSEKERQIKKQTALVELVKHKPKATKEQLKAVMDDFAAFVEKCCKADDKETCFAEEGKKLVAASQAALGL

## CCCCCCCCCCCCCCCCCC(=O)O [unlabeled stearic acid, stearic acid]
  binding constant: about 10^9 mol^−1
